The values that follow come from patent publication US20250388896A1, “COMPOSITION AND METHODS FOR TRANSGENE INSERTION” (ARTISAN DEVELOPMENT LABS, INC, priority 2022, published 2025).

Data set [1] concerns AAVS1. The data set can be described thus: CAR insertion efficiency at AAVS1 in primary T-cells by flow cytometry. It counts as cell-based, human. To be noted: primary Pan T-cells; recovery medium pretreated with 2 μM M3814; 75:50 pmol gNA:MAD7, 1.5 μg μL^−1 donor template, PGA. (In general: Flow cytometry measures light scatter and fluorescence of single cells or particles in a stream.)
Protocol: T-cells were isolated from human peripheral blood obtained from healthy adults by immune-magnetic negative selection using the EasySep Human T-cell Isolation Kit ([sequence] Technologies). After isolation, T-cells were activated in 25 μL mL^−1 ImmunoCult Human CD3/CD28/CD2 T-Cell Activator ([sequence] Technologies) in ImmunoCult-XF T-Cell Expansion Medium ([sequence] Technologies) containing 12.5 ng mL^−1 Human Recombinant IL-2, 5 ng mL^−1 IL-7, and 5 ng mL^−1 IL-15 ([sequence] Technologies) and seeded at 1.0×10^6 cells mL^−1. Until transfection 48 hours later, the cells were cultured at 37° C. in 5% CO2 incubators.
Donor templates comprising site-specific homology arms, respective promoter, and respective gene (GFP or Hu19 scFv-CD8α-CD28-CD3ζ CAR) were amplified from corresponding pTwist Ampicillin high-copy plasmids (Twist Bioscience) using homology arms-specific PCR primers. […] Purified HDR templates were collected and quantified on NanoDrop One Microvolume UV-Vis Spectrophotometer (ThermoFisher Scientific). […] HDR templates were collected, diluted, and concentrations quantified using Qubit dsDNA HS Assay Kit (ThermoFisher Scientific). […]

In data set [2] the test system is AAVS1 locus. Nature of the data set: INDEL frequency at the AAVS1 locus in Jurkat cells. The data set is classed as cell-based, human. The method, then: Ribonucleoprotein complexes (RNPs) were generated by incubating respective guide nucleic acids (gNAs) with MAD7 in the molar ratio of 3:2 gNA:MAD7 for 15 minutes at room temperature immediately before transfection. For Jurkat experiments, the RNP complexes were generated by mixing the respective gNA (150 pmol), MAD7 (100 pmol), and nuclease-free water, unless otherwise stated. […] Lonza 4D Nucleofector with Shuttle unit (V4SC-2960 Nucleocuvette Strips) was used for transfection, following the manufacturer's instructions. […] Extracted genomic DNA was quantified using the NanoDrop (ThermoFisher Scientific). […] The DNA was eluted from the beads with nuclease-free water and the size of the purified amplicons analyzed on a 2% agarose E-gel using the E-gel electrophoresis system (ThermoFisher Scientific). In the second PCR, unique pairs of Illumina-compatible indexes (Nextera XT Index Kit v2) were added to the amplicons using the KAPA HiFi HotStart Ready Mix (Roche). […] Sizes of the purified DNA fragments were validated on a 2% agarose gel using the E-gel electrophoresis system (ThermoFisher Scientific), quantified using Qubit dsDNA HS Assay Kit (Thermo Fisher) and then pooled in equimolar concentrations. […] The final library was sequenced on Illumina MiSeq System using the MiSeq Reagent Kit v.2 (300 cycles, 2×250 bp, paired-end reads). […]

As to `COc1ccc([C@@H](O)c2cc(-c3ncnc4cc(N5CCOCC5)ccc34)c(F)cc2Cl)nn1` [M3814], the “more efficient CAR insertion than other experiments” value in data set [1] is on record as about 5 times.

On to “crAAVS1: highly active gNA targeting the AAVS1 safe-harbor locus (guide TTAGGATGGCCTTCTCCGACG; listed as DNA, further chemistry not given here)”, for which the “activity of gNA targeting AAVS1 (INDEL frequency)” value in data set [2] is listed as “highly active”.
